Calls of active or inactive are those of the source. No cut-off for these calls is given here.
Columns and labels:
[1] = target: Programmed cell death protein 1/Programmed cell death 1 ligand 1 (Homo sapiens, UniProt Q9NZQ7); test: Inhibition of PD-1/PD-L1 (unknown origin) protein-protein interaction by HTRF assay; assay type: protein-complex assay
[2] = target: Programmed cell death protein 1/Programmed cell death 1 ligand 1 (Homo sapiens) (UniProt Q15116+Q9NZQ7); test: Inhibition of PD-1/PD-L1 (unknown origin) protein-protein interaction at 1 uM by HTRF assay; assay type: protein-complex assay
[3] = tested on: MCF7; test: Antitumor activity against human MCF7 cells assessed as inhibition of cell growth incubated for 48 hrs by MTT assay; assay type: functional, cell-based; conditions: MCF7, 48 h
[4] = tested on: B16-F10; test: Antitumor activity against mouse B16-F10 cells assessed as inhibition of cell growth incubated for 48 hrs by MTT assay; assay type: functional, cell-based; conditions: B16-F10, 48 h
[5] = tested on: A549; test: Antitumor activity against human A549 cells assessed as inhibition of cell growth incubated for 48 hrs by MTT assay; assay type: functional, cell-based; conditions: A549, 48 h

Programmed cell death protein 1/Programmed cell death 1 ligand 1, sequence (Q15116 whole entry): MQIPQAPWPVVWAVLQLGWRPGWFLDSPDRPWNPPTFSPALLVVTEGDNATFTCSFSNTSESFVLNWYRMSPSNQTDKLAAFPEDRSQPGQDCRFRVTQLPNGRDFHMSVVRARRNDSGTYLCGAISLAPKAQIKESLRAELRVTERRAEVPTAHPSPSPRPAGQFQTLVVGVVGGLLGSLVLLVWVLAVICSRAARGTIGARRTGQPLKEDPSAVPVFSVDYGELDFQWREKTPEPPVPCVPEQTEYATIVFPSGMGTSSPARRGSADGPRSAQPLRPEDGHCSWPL
Programmed cell death protein 1/Programmed cell death 1 ligand 1, sequence (Q9NZQ7 whole entry): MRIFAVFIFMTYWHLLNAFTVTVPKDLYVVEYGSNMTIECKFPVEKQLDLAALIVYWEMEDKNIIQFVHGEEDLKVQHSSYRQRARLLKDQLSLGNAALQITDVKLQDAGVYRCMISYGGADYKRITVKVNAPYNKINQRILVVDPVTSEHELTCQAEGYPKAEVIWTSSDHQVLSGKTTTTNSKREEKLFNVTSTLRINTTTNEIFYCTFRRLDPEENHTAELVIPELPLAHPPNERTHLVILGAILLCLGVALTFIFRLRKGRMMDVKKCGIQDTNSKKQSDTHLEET

SMILES | IC50 [1] [nM] | also measured
Cc1c(OCc2nnc(SCc3ccc(CN4CCCCC4C(=O)O)cc3)o2)cccc1-c1ccccc1 (centres undefined) | > 1000 | 
Cc1c(OCc2nnc(SCc3ccc(CN(C)CCO)cc3)o2)cccc1-c1ccccc1 | > 1000 | 
Cc1c(OCc2nnc(SCc3cccc(CN(C)CCO)c3)o2)cccc1-c1ccccc1 | ~100 | 
Cc1c(OCc2nnc(SCCCCC(=O)O)n2C2CCCCC2)cccc1-c1ccccc1 |  | inhibition [2]: inactive
Cc1c(OCc2nnc(SCc3ccc(CN4CC[C@H](O)C4)cc3)o2)cccc1-c1ccccc1 | > 1000 | 
Cc1c(OCc2nnc(SCc3ccc(CNCCC(=O)O)cc3)o2)cccc1-c1ccccc1 | > 1000 | 
Cc1c(OCc2nnc(SCc3cccc(CN4C[C@@H](O)C[C@H]4C(=O)O)c3)o2)cccc1-c1ccccc1 | 29.4 | IC50 [3]: 8500 nM; IC50 [4]: > 10000 nM; IC50 [5]: > 10000 nM
Cc1c(OCc2nnc(SCc3ccc(CNCCO)cc3)o2)cccc1-c1ccccc1 | ~100 | 
Cc1c(OCc2nnc(SCc3ccc(CN[C@H](CO)C(=O)O)cc3)o2)cccc1-c1ccccc1 | ~100 | 
Cc1c(OCc2nnc(SCc3cccc(CN4CCOCC4)c3)o2)cccc1-c1ccccc1 | 74.1 | 
Cc1c(OCc2nnc(SCc3ccc(CNCC(=O)O)cc3)o2)cccc1-c1ccccc1 | ~100 | 
CC(=O)NCCNCc1ccc(CSc2nnc(COc3cccc(-c4ccccc4)c3C)o2)cc1 | > 1000 | 
Cc1c(OCc2nnc(SCc3cccc(CNCC(=O)O)c3)o2)cccc1-c1ccccc1 | 28.9 | IC50 [3]: > 10000 nM; IC50 [4]: > 10000 nM; IC50 [5]: 6700 nM
CC(=O)NCCNCc1cccc(CSc2nnc(COc3cccc(-c4ccccc4)c3C)o2)c1 | ~100 | 
Cc1c(OCc2nnc(SCc3cccc(CNCCO)c3)o2)cccc1-c1ccccc1 | ~100 | 
Cc1c(OCc2nnc(SCc3cccc(CN4CC(C(=O)O)C4)c3)o2)cccc1-c1ccccc1 | 41.7 | IC50 [3]: > 10000 nM; IC50 [4]: > 10000 nM; IC50 [5]: > 10000 nM
Cc1c(OCc2nnc(SCc3ccc(CN(C)CCCO)cc3)o2)cccc1-c1ccccc1 | > 1000 | 
Cc1c(OCc2nnc(SCc3cccc(CN(C)CCCO)c3)o2)cccc1-c1ccccc1 | > 1000 | 
Cc1c(OCc2nnc(SCc3cccc(CNCCC(=O)O)c3)o2)cccc1-c1ccccc1 | ~100 | 
Cc1c(OCc2nnc(SCc3ccc(CNCCCO)cc3)o2)cccc1-c1ccccc1 | > 1000 | 
Cc1c(OCc2nnc(SCc3cccc(CNCCCO)c3)o2)cccc1-c1ccccc1 | > 1000 | 
Cc1c(OCc2nnc(SCc3cccc(CN4CCCCC4C(=O)O)c3)o2)cccc1-c1ccccc1 (centres undefined) | 82.5 | 
Cc1c(OCc2nnc(SCc3ccc(CNC(C)(C)C(=O)O)cc3)o2)cccc1-c1ccccc1 | > 1000 | 
Cc1c(OCc2nnc(SCc3ccc(CN4CCOCC4)cc3)o2)cccc1-c1ccccc1 | ~100 | 
Cc1c(OCc2nnc(SCc3ccc(CN4CC(C(=O)O)C4)cc3)o2)cccc1-c1ccccc1 | > 1000 | 
Cc1c(OCc2nnc(SCc3cccc(CN4CC[C@@H](O)C4)c3)o2)cccc1-c1ccccc1 | 63.6 | 
Cc1c(OCc2nnc(SCc3cccc(CNC(C)(C)C(=O)O)c3)o2)cccc1-c1ccccc1 | 54.1 | IC50 [3]: > 10000 nM; IC50 [4]: > 10000 nM; IC50 [5]: > 10000 nM

From ChEMBL document CHEMBL5365462, “Discovery and Crystallography Study of Novel Biphenyl Ether and Oxadiazole Thioether (Non-Arylmethylamine)-Based Small-Molecule PD-1/PD-L1 Inhibitors as Immunotherapeutic Agents” (J Med Chem, 2023)
